Assays:
PRPS1 [1] = molecular target: T1, PRPS1 (Homo sapiens, UniProt P60891); experiment: steady-state kinetics, coupled assay at […] nm; assay type: biochemical
T1 construct: full length
T1 sequence (P60891 2-318): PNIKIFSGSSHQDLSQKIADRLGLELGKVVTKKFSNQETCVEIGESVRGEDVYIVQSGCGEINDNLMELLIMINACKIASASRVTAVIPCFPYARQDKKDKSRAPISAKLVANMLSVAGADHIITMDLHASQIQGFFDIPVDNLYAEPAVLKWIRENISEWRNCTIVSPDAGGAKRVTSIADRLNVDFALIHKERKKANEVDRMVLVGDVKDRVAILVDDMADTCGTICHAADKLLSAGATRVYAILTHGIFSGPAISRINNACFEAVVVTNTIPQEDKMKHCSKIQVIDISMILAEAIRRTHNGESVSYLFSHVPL

PRPS1 [2] = molecular target: T1, PRPS1; experiment: ITC; co-crystal structure with R5P, ApCpp, Cd2+; enzyme inhibition (IC50 […]); assay type: binding
PRPS2(-3AA/Q156K) = molecular target: T2, PRPS2(-3AA/Q156K) (Homo sapiens, UniProt P11908, Q153K); experiment: HPLC feedback inhibition assay (AMP production); assay type: biochemical
T2 construct: full length chimeric variant, 3AA (V103, G104, E105) deleted
T2 sequence (P11908 2-318 Q153K): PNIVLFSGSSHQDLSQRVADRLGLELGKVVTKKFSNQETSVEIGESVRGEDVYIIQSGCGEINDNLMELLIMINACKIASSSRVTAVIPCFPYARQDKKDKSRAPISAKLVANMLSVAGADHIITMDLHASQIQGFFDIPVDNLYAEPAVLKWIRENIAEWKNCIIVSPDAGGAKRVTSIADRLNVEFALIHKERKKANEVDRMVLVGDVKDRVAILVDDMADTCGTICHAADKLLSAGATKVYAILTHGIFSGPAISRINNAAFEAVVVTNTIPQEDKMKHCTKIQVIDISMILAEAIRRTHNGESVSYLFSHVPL

[3] = molecular target: the molecule itself; experiment: crystal structure; co-crystallisation of 500 μM purified PRPS with ApCpp or GDP (1:5), R5P, crystals soaked in 1 mM CdCl2; 277 K

In the case of Nc1ncnc2c1ncn2[C@@H]1O[C@H](COP(=O)(O)OP(=O)(O)OP(=O)(O)O)[C@@H](O)[C@H]1O [ATP], the “steady-state kinetics, coupled assay at 340 nm” value (PRPS1 [1]) is reported as “The catalytic efficiencies of PRPS2 and PRPS1 on either ATP or R5P were characterized”.

Nc1nc2c(ncn2[C@@H]2O[C@H](CO[P@](=O)(O)OP(=O)(O)O)[C@@H](O)[C@H]2O)c(=O)[nH]1 [GDP] was tested, and the Kd (PRPS1 [2]) was 10 µM and the “HPLC feedback inhibition assay (AMP production)” value (PRPS2(-3AA/Q156K)) was “chimeric variants of PRPS1( + 3AA/K153Q) and PRPS2(-3AA/Q156K), which exhibited switched GDP feedback inhibition responses”.

B1: recombinant PRPS2 (enzyme, human, UniProt P11908-2 1-321, looked up)
chain: MPNIVLFSGSSHQDLSQRVADRLGLELGKVVTKKFSNQETSVEIGESVRGEDVYIIQSGCGEINDNLMELLIMINACKIASSSRVTAVIPCFPYARQDKKDKVGESRAPISAKLVANMLSVAGADHIITMDLHASQIQGFFDIPVDNLYAEPAVLQWIRENIAEWKNCIIVSPDAGGAKRVTSIADRLNVEFALIHKERKKANEVDRMVLVGDVKDRVAILVDDMADTCGTICHAADKLLSAGATKVYAILTHGIFSGPAISRINNAAFEAVVVTNTIPQEDKMKHCTKIQVIDISMILAEAIRRTHNGESVSYLFSHVPL
notes: PRPS2, human, full-length gene synthesised and subcloned into pSumo; the form with V103, G104, E105 (3AA) in Loop2 and Q156, i.e. the 321-residue isoform; Crystallised with R5P, ApCpp and Cd2+; source: E. coli BL21(DE3), purified (Ni-NTA, ion exchange, Superdex-200); not shown: His-Sumo, N-terminal, cleaved
B1: binds [3].

B2: PRPS1( + 3AA), PRPS1 chimeric variant (enzyme, human, UniProt P60891 1-318, looked up)
chain: MPNIKIFSGSSHQDLSQKIADRLGLELGKVVTKKFSNQETCVEIGESVRGEDVYIVQSGCGEINDNLMELLIMINACKIASASRVTAVIPCFPYARQDKKDKVGESRAPISAKLVANMLSVAGADHIITMDLHASQIQGFFDIPVDNLYAEPAVLKWIRENISEWRNCTIVSPDAGGAKRVTSIADRLNVDFALIHKERKKANEVDRMVLVGDVKDRVAILVDDMADTCGTICHAADKLLSAGATRVYAILTHGIFSGPAISRINNACFEAVVVTNTIPQEDKMKHCSKIQVIDISMILAEAIRRTHNGESVSYLFSHVPL
notes: PRPS1, human, full length, with the three residues V, G, E of PRPS2 (V103, G104, E105) inserted into the corresponding position of Loop2; the C-terminal residue is then L321; Crystallised with R5P, ApCpp and Cd2+; also called PRPS1 chimera; source: E. coli BL21(DE3), purified (Ni-NTA, ion exchange, Superdex-200); not shown: His-Sumo, N-terminal, cleaved
B2: binds [3].

— paper PMC12037730 (Nature Communications, 2025)
